Measured values from patent US9771359B1, “Substituted oxazole- and thiazole-based carboxamide and urea derivatives as vanilloid receptor ligands II” (MEDIFRON DBT INC., priority 2014, dated 2017).

Each compound was assayed against vanilloid receptor 1 (VR1/TRPV1) (Homo sapiens (Human), UniProt Q8NER1) (assay: FLIPR assay, Ca2+ influx in CHO K1 cells transfected with the human VR1 gene). Settings: compound 5 μM, % activation compared with control capsaicin 10 μM.
Format: cell-based
Description: Furthermore, preference may be given to compounds according to the first aspect of the invention that cause a 50% displacement of capsaicin, which is present at a concentration of 100 nM, in a FLIPR assay with CHO K1 cells which were transfected with the human VR1 gene at a concentration of less than 2 000 nM, preferably less than 1 000 nM, particularly preferably less than 300 nM, most particularly preferably less than 100 nM, even more preferably less than 75 nM, additionally preferably less than 50 nM, most preferably less than 10 nM. In the process, the Ca^2+ influx is quantified in the FLIPR assay with the aid of a Ca^2+-sensitive dye (type Fluo-4, Molecular Probes Europe BV, Leiden, the Netherlands) in a fluorescent imaging plate reader (FLIPR, Molecular Devices, Sunnyvale, USA), as described hereinafter.
The FLIPR protocol consists of 2 substance additions during a kinetic measurement. First the compounds to be tested (5 μM) are pipetted onto the cells and the Ca^2+ influx is determined in comparison to the control (capsaicin 10 μM), providing the result as % activation and representing the compound-alone effect (calculation at peak signal related to baseline). […] After 5 min incubation, the Ca^2+ influx is related to an injection of 100 nM of capsaicin and thereby the antagonistic effect of the test compounds detected.
Desensitising agonists and antagonists lead to suppression of the Ca^2+ influx. The % inhibition is calculated compared to the maximum achievable inhibition with 10 μM of capsaicin. Triple analyses (n=3) are carried out and repeated in at least 3 independent experiments.
Starting from the percentage displacement caused by different concentrations of the compounds to be tested of general formula I, IC50 inhibitory concentrations which cause a 50-% displacement of capsaicin were calculated. Ki values for the test substances were obtained by conversion by means of the Cheng-Prusoff equation (Cheng, Prusoff; Biochem. Pharmacol. 22, 3099-3108, 1973).
Chinese hamster ovary cells (CHO K1 cells, European Collection of Cell Cultures (ECACC) United Kingdom) are stably transfected with the VR1 gene. For functional testing, these cells are plated out on poly-D-lysine-coated black 96-well plates having a clear base (BD Biosciences, Heidelberg, Germany) at a density of 25,000 cells/well. The cells are incubated overnight at 37° C. and 5% CO2 in a culture medium (Ham's F12 nutrient mixture, 10% by volume of FCS (foetal calf serum), 18 μg/ml of L-proline). The next day the cells are incubated with Fluo-4 (Fluo-4 2 μM, 0.01% by volume of Pluronic F127, Molecular Probes in HBSS (Hank's buffered saline solution), Gibco Invitrogen GmbH, Karlsruhe, Germany) for 30 min at 37° C. Subsequently, the plates are washed three times with HBSS buffer and after further incubation for 15 min at RT used for Ca^2+ measurement in a FLIPR assay. The Ca^2+-dependent fluorescence is measured before and after the addition of the substances to be tested (λex wavelength=488 nm, λem=540 nm). Quantification is carried out by measuring the highest fluorescence intensity (FC, fluorescence counts) over time.

vanilloid receptor 1 (VR1/TRPV1), sequence (Q8NER1 whole entry): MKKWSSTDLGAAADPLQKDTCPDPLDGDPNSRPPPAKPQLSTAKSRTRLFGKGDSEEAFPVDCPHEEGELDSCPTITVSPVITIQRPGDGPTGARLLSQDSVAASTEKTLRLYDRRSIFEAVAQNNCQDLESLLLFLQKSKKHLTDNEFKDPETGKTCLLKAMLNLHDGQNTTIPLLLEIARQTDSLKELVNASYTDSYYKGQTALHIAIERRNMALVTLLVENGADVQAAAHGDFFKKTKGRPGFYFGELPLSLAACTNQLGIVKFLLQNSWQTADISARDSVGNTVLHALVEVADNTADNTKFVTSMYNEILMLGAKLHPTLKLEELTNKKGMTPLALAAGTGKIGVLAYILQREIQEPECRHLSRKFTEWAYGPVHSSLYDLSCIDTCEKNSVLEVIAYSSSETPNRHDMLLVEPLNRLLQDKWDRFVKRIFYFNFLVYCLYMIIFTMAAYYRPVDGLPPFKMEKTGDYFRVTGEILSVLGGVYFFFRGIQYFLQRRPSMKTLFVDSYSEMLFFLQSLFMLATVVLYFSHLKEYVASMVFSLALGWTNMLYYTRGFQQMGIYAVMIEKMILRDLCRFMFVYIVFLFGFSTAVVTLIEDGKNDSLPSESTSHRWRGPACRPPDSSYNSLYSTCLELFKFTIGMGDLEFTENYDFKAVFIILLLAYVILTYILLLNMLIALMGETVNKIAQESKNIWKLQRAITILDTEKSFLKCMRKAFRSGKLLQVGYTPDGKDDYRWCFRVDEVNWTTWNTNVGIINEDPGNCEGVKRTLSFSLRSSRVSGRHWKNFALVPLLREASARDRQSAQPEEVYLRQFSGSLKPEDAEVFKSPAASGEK

Compound | compound-alone effect on Ca2+ influx (agonist / partial agonist)
Cc1cccc(-c2nc(C(C)(C)C)sc2CNC(=O)C(C)c2ccc(CNS(C)(=O)=O)c(F)c2)c1 (stereo not drawn) [EX-04, N-((2-(tert-butyl)-4-(m-tolyl)thiazol-5-yl)methyl)-2-(3-fluoro-4-(methylsulfonamidomethyl)phenyl)propanamide] | pAG (A Ca^2+ influx of 10%-60% reveals a partial agonist (pAG))
CC(C(=O)NCc1sc(C(C)(C)C)nc1-c1cccc(Cl)c1)c1ccc(CO)c(F)c1 (stereo not drawn) [EX-07, N-((2-(tert-butyl)-4-(3-chlorophenyl)thiazol-5-yl)methyl)-2-(3-fluoro-4-(hydroxymethyl)phenyl)propanamide] | AG (a Ca^2+ influx of >60% relates to a pure agonist (AG))
Cc1cccc(-c2nc(C(C)(C)C)sc2CNC(=O)C(C)c2ccc(CO)c(F)c2)c1 (stereo not drawn) [EX-08, N-((2-(tert-butyl)-4-(m-tolyl)thiazol-5-yl)methyl)-2-(3-fluoro-4-(hydroxymethyl)phenyl)propanamide] | AG (a Ca^2+ influx of >60% relates to a pure agonist (AG))
CC(C(=O)NCc1oc(C(F)(F)F)nc1-c1cccc(Cl)c1)c1ccc(C2(O)COC2)cc1 (stereo not drawn) [EX-09, N-((4-(3-chlorophenyl)-2-(trifluoromethyl)oxazol-5-yl)methyl)-2-(4-(3-hydroxyoxetan-3-yl)phenyl)propanamide] | pAG (A Ca^2+ influx of 10%-60% reveals a partial agonist (pAG))
CC(C(=O)NCc1sc(C(F)(F)F)nc1-c1cccc(Cl)c1)c1ccc(C2(O)COC2)cc1 (stereo not drawn) [EX-10, N-((4-(3-chlorophenyl)-2-(trifluoromethyl)thiazol-5-yl)methyl)-2-(4-(3-hydroxyoxetan-3-yl)phenyl)propanamide] | pAG (A Ca^2+ influx of 10%-60% reveals a partial agonist (pAG))

Same assay, conditions: displacement of capsaicin 100 nM; Ki from IC50 by Cheng-Prusoff equation; read-out: (f) Ki (human) [nM] Cap

Ki [nM] | Compound
0.4 | CC(C(=O)NCc1sc(C(F)(F)F)nc1-c1cccc(Cl)c1)c1ccc(NCCO)nc1 (single isomer, unassigned) [EX-15, N-((4-(3-chlorophenyl)-2-(trifluoromethyl)thiazol-5-yl)methyl)-2-(6-((2-hydroxyethyl)amino)pyridin-3-yl)propanamide]
41.9 | CC(C(=O)NCc1sc(C(F)(F)F)nc1-c1cccc(Cl)c1)c1ccc(NCCO)nc1 (single isomer, unassigned) [EX-16, N-((4-(3-chlorophenyl)-2-(trifluoromethyl)thiazol-5-yl)methyl)-2-(6-((2-hydroxyethyl)amino)pyridin-3-yl)propanamide]
0.7 | CC(C(=O)NCc1oc(C(F)(F)F)nc1-c1cccc(Cl)c1)c1ccc(NCCO)nc1 (single isomer, unassigned) [EX-17, N-((4-(3-chlorophenyl)-2-(trifluoromethyl)oxazol-5-yl)methyl)-2-(6-((2-hydroxyethyl)amino)pyridin-3-yl)propanamide]
96.7 | CC(C(=O)NCc1oc(C(F)(F)F)nc1-c1cccc(Cl)c1)c1ccc(NCCO)nc1 (single isomer, unassigned) [EX-18, N-((4-(3-chlorophenyl)-2-(trifluoromethyl)oxazol-5-yl)methyl)-2-(6-((2-hydroxyethyl)amino)pyridin-3-yl)propanamide]
1.4 | CC(C(=O)NCc1sc(C(F)(F)F)nc1-c1cccc(Cl)c1)c1ccc(CCO)c(F)c1 (stereo not drawn) [EX-01, N-((4-(3-chlorophenyl)-2-(trifluoromethyl)thiazol-5-yl)methyl)-2-(3-fluoro-4-(2-hydroxyethyl)phenyl)-propanamide]
28.4 | CC(C(=O)NCc1oc(C(F)(F)F)nc1-c1cccc(Cl)c1)c1ccc(CCO)c(F)c1 (stereo not drawn) [EX-02, N-((4-(3-chlorophenyl)-2-(trifluoromethyl)oxazol-5-yl)methyl)-2-(3-fluoro-4-(2-hydroxyethyl)-phenyl)propanamide]
0.6 | CC(C(=O)NCc1sc(C(C)(C)C)nc1-c1cccc(Cl)c1)c1ccc(CNS(C)(=O)=O)c(F)c1 (stereo not drawn) [EX-03, N-((2-(tert-butyl)-4-(3-chlorophenyl)thiazol-5-yl)methyl)-2-(3-fluoro-4-(methylsulfonamido-methyl)phenyl)propanamide]
1 | Cc1cccc(-c2nc(C(C)(C)C)sc2CNC(=O)C(C)c2ccc(CNS(C)(=O)=O)c(F)c2)c1 (stereo not drawn) [EX-04, N-((2-(tert-butyl)-4-(m-tolyl)thiazol-5-yl)methyl)-2-(3-fluoro-4-(methylsulfonamidomethyl)phenyl)propanamide]
7.5 | CC(C(=O)NCc1oc(C(F)(F)F)nc1-c1cccc(Cl)c1)c1ccc(CNS(N)(=O)=O)cc1 (stereo not drawn) [EX-05, N-((4-(3-chlorophenyl)-2-(trifluoromethyl)oxazol-5-yl)methyl)-2-(4-((sulfamoylamino)methyl)-phenyl)propanamide]
0.7 | CC(C(=O)NCc1sc(C(F)(F)F)nc1-c1cccc(Cl)c1)c1ccc(CNS(N)(=O)=O)cc1 (stereo not drawn) [EX-06, N-((4-(3-chlorophenyl)-2-(trifluoromethyl)thiazol-5-yl)methyl)-2-(4-((sulfamoylamino)methyl)-phenyl)propanamide]
73.8 | CC(C(=O)NCc1oc(C(F)(F)F)nc1-c1cccc(Cl)c1)c1ccc(C2(O)COC2)cc1 (stereo not drawn) [EX-09, N-((4-(3-chlorophenyl)-2-(trifluoromethyl)oxazol-5-yl)methyl)-2-(4-(3-hydroxyoxetan-3-yl)phenyl)propanamide]
8.8 | CC(C(=O)NCc1sc(C(F)(F)F)nc1-c1cccc(Cl)c1)c1ccc(C2(O)COC2)cc1 (stereo not drawn) [EX-10, N-((4-(3-chlorophenyl)-2-(trifluoromethyl)thiazol-5-yl)methyl)-2-(4-(3-hydroxyoxetan-3-yl)phenyl)propanamide]
53.1 | CC(C(=O)NCc1oc(C(F)(F)F)nc1-c1cccc(Cl)c1)c1cnc(CCS(C)(=O)=O)c(F)c1 (stereo not drawn) [EX-11, N-((4-(3-chlorophenyl)-2-(trifluoromethyl)oxazol-5-yl)methyl)-2-(5-fluoro-6-(2-(methylsulfonyl)ethyl)pyridin-3-yl)propanamide]
1.1 | CC(C(=O)NCc1sc(C(F)(F)F)nc1-c1cccc(Cl)c1)c1cnc(CCS(C)(=O)=O)c(F)c1 (stereo not drawn) [EX-12, N-((4-(3-chlorophenyl)-2-(trifluoromethyl)thiazol-5-yl)methyl)-2-(5-fluoro-6-(2-(methylsulfonyl)ethyl)pyridin-3-yl)propanamide]
5.2 | CC(C(=O)NCc1oc(C(F)(F)F)nc1-c1cccc(Cl)c1)c1ccc(NCCO)nc1 (stereo not drawn) [EX-13, N-((4-(3-chlorophenyl)-2-(trifluoromethyl)oxazol-5-yl)methyl)-2-(6-((2-hydroxyethyl)amino)pyridin-3-yl)propanamide]
0.7 | CC(C(=O)NCc1sc(C(F)(F)F)nc1-c1cccc(Cl)c1)c1ccc(NCCO)nc1 (stereo not drawn) [EX-14, N-((4-(3-chlorophenyl)-2-(trifluoromethyl)thiazol-5-yl)methyl)-2-(6-((2-hydroxyethyl)amino)pyridin-3-yl)propanamide]
13.8 | CC(C(=O)NCc1oc(C(F)(F)F)nc1-c1cccc(Cl)c1)c1cnc(CO)c(F)c1 (stereo not drawn) [EX-19, N-((4-(3-chlorophenyl)-2-(trifluoromethyl)oxazol-5-yl)methyl)-2-(5-fluoro-6-(hydroxymethyl)pyridin-3-yl)propanamide]
0.3 | CC(C(=O)NCc1sc(C(F)(F)F)nc1-c1cccc(Cl)c1)c1cnc(CO)c(F)c1 (stereo not drawn) [EX-20, N-((4-(3-chlorophenyl)-2-(trifluoromethyl)thiazol-5-yl)methyl)-2-(5-fluoro-6-(hydroxymethyl)pyridin-3-yl)propanamide]
4.7 | CC(C(=O)NCc1oc(C(F)(F)F)nc1-c1cccc(Cl)c1)c1ccc(CNS(N)(=O)=O)c(F)c1 (stereo not drawn) [EX-23, N-((4-(3-chlorophenyl)-2-(trifluoromethyl)oxazol-5-yl)methyl)-2-(3-fluoro-4-((sulfamoylamino)methyl)phenyl)propanamide]
2.35 | CC(C(=O)NCc1sc(C(F)(F)F)nc1-c1cccc(Cl)c1)c1ccc(CNS(N)(=O)=O)c(F)c1 (stereo not drawn) [EX-24, N-((4-(3-chlorophenyl)-2-(trifluoromethyl)thiazol-5-yl)methyl)-2-(3-fluoro-4-((sulfamoylamino)methyl)phenyl)propanamide]

Same assay, conditions: inhibition <10% @5 μM

(f) Ki (human) Cap: no effect | Compound
ne (ne=no effect (<10% @5 μM)) | CC(C(=O)NCc1oc(C(F)(F)F)nc1-c1cccc(Cl)c1)c1cnc(CO)c(F)c1 (stereo not drawn) [EX-21, N-((4-(3-chlorophenyl)-2-(trifluoromethyl)oxazol-5-yl)methyl)-2-(5-fluoro-6-(hydroxymethyl)pyridin-3-yl)propanamide]
ne (ne=no effect (<10% @5 μM)) | CC(C(=O)NCc1oc(C(F)(F)F)nc1-c1cccc(Cl)c1)c1cnc(CO)c(F)c1 (stereo not drawn) [EX-22, N-((4-(3-chlorophenyl)-2-(trifluoromethyl)oxazol-5-yl)methyl)-2-(5-fluoro-6-(hydroxymethyl)pyridin-3-yl)propanamide]
